# Key:
# [1] = biological target: T1, recombinant human PDE5 (Homo sapiens, UniProt O76074); test: Inhibitory effect on cGMP-PDE (PDE5 inhibition, one-step assay); type: biochemical; details: in vitro test; human recombinant PDE5, 0.15 μM 8-[H3]-cGMP, 30 minutes incubation; read-out: IC50 values versus PDE5
# T1 construct: host or cells: Saccharomyces cerevisiae strain BJ2-54 (ATCC 74465), described as an exemplary method
# Protocol: The compounds of structural formula (I) were tested for an ability to inhibit PDE5. The ability of a compound to inhibit PDE5 activity is related to the IC50 value for the compound, i.e., the concentration of inhibitor required for 50% inhibition of enzyme activity. The IC50 value for compounds of structural formula (I) were determined using recombinant human PDE5.
# The production of recombinant human PDEs and the IC50 determinations can be accomplished by well-known methods in the art. Exemplary methods are described as follows:
# Phosphodiesterase activity of the preparations was determined as follows. PDE assays utilizing a charcoal separation technique were performed essentially as described in Loughney et al. (1996). […] The [32P]5′-AMP or [32P]5′-GMP then was quantitatively converted to free [32P] phosphate and unlabeled adenosine or guanosine by the action of snake venom 5′-nucleotidase. […] PDE enzyme was present in quantities that yield <30% total hydrolysis of substrate (linear assay conditions). […] After centrifugation (750×g for 3 minutes) to sediment the charcoal, a sample of the supernatant was taken for radioactivity determination in a scintillation counter and the PDE activity was calculated.
# cGMP-PDE activity of compounds of the present invention was measured using a one-step assay adapted from Wells et al., Biochim. […]
IC50 [1],melting point,SMILES
3.9 nM,284 to 289 °C,"COc1ccc(CC(=O)N2CCN3C(=O)[C@H]4Cc5c([nH]c6ccccc56)[C@@H](c5ccc6c(c5)OCO6)N4C(=O)C3C2)cc1OC (stereo partly drawn) [Example 3, (5aR,12R)-12-Benzo(1,3)dioxol-5-yl-9-[2-(3,4-dimethoxyphenyl)ethanoyl]-5,5a,8,9, 10, 10a,12,13-octahydro-7H-6a,9,11a,13-tetraaza-indeno[1,2-b]anthracene-6,11-dione]"
1.7 nM,226 to 237 °C,"O=C1[C@H]2Cc3c([nH]c4ccccc34)[C@@H](c3ccc4c(c3)OCO4)N2C(=O)C2CNCCN12 (mixture of isomers) [Example 1, (5aR,12R)-12-Benzo(1,3)dioxol-5-yl-5,5a,8,9,10,10a,12,13-octahydro-7H-6a,9,11a,13-tetraza-indeno[1,2-b]anthracene-6,11-dione]"
